Laboratory results taken from BindingDB's records for patent US20240217978 (Chong Kun Dang Pharmaceutical, 2024).

target: Adenosine receptor A2a (Homo sapiens, UniProt P29274); test: Evaluation of A2a Receptor Binding Affinity
Description: A radioligand binding test was conducted by using [3H]-NECA (5′-N-[adenine-2,8-3H]-ethylcarboxamidoadenosine) and an adenosine A2a membrane. As the adenosine A2a membrane, a cell membrane prepared from HEK-293 cells transfected with human adenosine A2a receptor was used. The membrane used for the test was prepared by incubating with a radioligand until equilibrium was reached. In order to separate the radioligand-bound membrane, the unbound radioligand was separated by using Packard filtermate Harverster and glass filter plates.10 μL of test compound dissolved in binding buffer (50 mM Tris, 10 mM MgCl2, 1 mM EDTA pH 7.4) and 20 μL of [3H]-NECA (final concentration of 37 nM) or reference inhibitor was mixed with 20 μL of A2a membrane in an unbound 96-well plate and incubated at room temperature for one hour. Prior to filtration, a 96-well harvest filter plate was coated with 0.33% polyethylenimine for 30 minutes and then washed with assay buffer. The binding reaction was transferred to the filter plate and washed three times with wash buffer. The dish was then dried, scintillant was added, and radioactivity was counted in a scintillation counter (Topcount NXT, Packard).

Sequence of Adenosine receptor A2a (P29274 whole entry): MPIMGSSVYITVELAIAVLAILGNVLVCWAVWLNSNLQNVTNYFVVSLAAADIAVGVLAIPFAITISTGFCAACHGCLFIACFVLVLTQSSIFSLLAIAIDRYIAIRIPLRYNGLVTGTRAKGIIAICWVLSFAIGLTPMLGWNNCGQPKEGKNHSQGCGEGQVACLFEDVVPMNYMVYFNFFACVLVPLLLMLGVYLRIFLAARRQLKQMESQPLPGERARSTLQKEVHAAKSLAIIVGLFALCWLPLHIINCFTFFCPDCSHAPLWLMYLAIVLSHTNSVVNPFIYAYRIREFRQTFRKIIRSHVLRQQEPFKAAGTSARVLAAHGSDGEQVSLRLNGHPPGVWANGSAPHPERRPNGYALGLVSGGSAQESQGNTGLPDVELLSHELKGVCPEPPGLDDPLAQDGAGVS

Row | SMILES | IC50 [nM]
1 | CCNC(=O)N1CCN(C(=O)[C@@H]2CCCN2c2nc(N)n3nc(-c4ccco4)nc3n2)CC1 [US20240217978, Example 115] | 10
2 | Nc1nc(N2CCC[C@H]2C(=O)N2CCC(C(=O)Nc3cccc(F)c3)CC2)nc2nc(-c3ccco3)nn12 [US20240217978, Example 130] | 2
3 | Nc1nc(N2CCC[C@H]2C(=O)N2CCCN(c3ncccn3)CC2)nc2nc(-c3ccco3)nn12 [US20240217978, Example 277] | 12
